Among the data in patent US12486253B2, “Therapeutics for the degradation of mutant BRAF” (C4 THERAPEUTICS, INC., priority 2021, dated 2025) are DC50 and Emax values, retold here.

For this assay, the target named is BRAF V600E (Homo sapiens, UniProt P15056, V600E). As to the kind of experiment: HiBiT cellular BRAF^V600E degradation assay. The format is cell-based. The settings on record: for DC50: concentration at which 50% of total cellular BRAF^V600E is degraded; for Emax: read-out: HiBit 24 h Emax. (HiBiT is a short tag that completes a luciferase, so light tracks the accessible tagged protein.)
Sequence of BRAF V600E (P15056 whole entry V600E): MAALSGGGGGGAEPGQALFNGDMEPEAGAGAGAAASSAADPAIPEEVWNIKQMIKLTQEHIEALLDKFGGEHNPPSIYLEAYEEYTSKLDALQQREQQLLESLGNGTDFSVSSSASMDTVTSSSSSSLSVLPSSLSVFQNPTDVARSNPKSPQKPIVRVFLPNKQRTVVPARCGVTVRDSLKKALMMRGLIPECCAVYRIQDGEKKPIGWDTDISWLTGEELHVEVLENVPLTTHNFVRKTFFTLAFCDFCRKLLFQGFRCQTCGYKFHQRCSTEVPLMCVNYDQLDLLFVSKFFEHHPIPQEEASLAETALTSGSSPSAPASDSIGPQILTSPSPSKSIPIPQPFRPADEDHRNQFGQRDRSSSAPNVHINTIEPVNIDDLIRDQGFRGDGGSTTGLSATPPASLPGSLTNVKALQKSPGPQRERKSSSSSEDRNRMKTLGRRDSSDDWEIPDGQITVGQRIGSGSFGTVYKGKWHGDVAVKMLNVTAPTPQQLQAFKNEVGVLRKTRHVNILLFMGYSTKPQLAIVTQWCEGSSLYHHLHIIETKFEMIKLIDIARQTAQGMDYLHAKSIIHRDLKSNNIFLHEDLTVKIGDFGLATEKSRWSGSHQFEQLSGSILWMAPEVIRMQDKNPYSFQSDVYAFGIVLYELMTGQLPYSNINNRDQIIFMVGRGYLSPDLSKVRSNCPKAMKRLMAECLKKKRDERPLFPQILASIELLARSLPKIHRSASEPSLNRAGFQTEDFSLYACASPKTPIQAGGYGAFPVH

The mark [1] stands for this setting: A375.10 cells, 24 h, residual protein remaining in the cell.

Each structure is given as a SMILES string. Where two headings read alike, the source gives them in different places.

One may read the DC50 as the midpoint of the concentration-degradation curve. The Emax is the size of the effect at its maximum, as opposed to the concentration needed. Compound `N#Cc1c(NS(=O)(=O)C2CC2)ccc(F)c1Oc1ccc2ncn(-c3cnc(N4CCN(C(=O)CN5CCC(c6ccc(N[C@@H]7CCC(=O)NC7=O)cc6F)CC5)CC4)nc3)c(=O)c2c1` [Example 115, N-[2-cyano-3-[3-[2-[4-[2-[4-[4-[[(3R)-2,6-dioxopiperidin-3-yl]amino]-2-fluorophenyl]piperidin-1-yl]acetyl]piperazin-1-yl]pyrimidin-5-yl]-4-oxoquinazolin-6-yl]oxy-4-fluorophenyl]cyclopropanesulfonamide] showed a DC50 (A375.10 cells, 24 h) of 16.1 nM. For the same compound, the Emax under setting [1] is 12.8%.

The compound `CCN(C)S(=O)(=O)Nc1ccc(F)c(Oc2ccc3ncn([C@@H]4COC5(CCN(C(=O)CN6CCC(c7ccc(NC8CCC(=O)NC8=O)cc7F)CC6)CC5)C4)c(=O)c3c2Br)c1C#N` (stereo partly drawn) [Example 74, (3S)-3-[5-bromo-6-[2-cyano-3-[[ethyl(methyl)sulfamoyl]amino]-6-fluorophenoxy]-4-oxoquinazolin-3-yl]-8-[2-[4-[4-[(2,6-dioxopiperidin-3-yl)amino]-2-fluorophenyl]piperidin-1-yl]acetyl]-1-oxa-8-azaspiro[4.5]decane] showed a 50% degradation concentration (DC50) (A375.10 cells, 24 h) of 31.5 nM. Besides, the Emax under setting [1] was determined as 11.6%.

As to `CCN(C)S(=O)(=O)Nc1ccc(F)c(Oc2ccc3ncn([C@H]4COC5(CCC(N6CCC(c7cc8c(cc7F)c(N7CCC(=O)NC7=O)nn8C)CC6)CC5)C4)c(=O)c3c2)c1C#N` (stereo partly drawn) [Example 200, 6-[2-cyano-3-[[ethyl(methyl)sulfamoyl]amino]-6-fluorophenoxy]-3-[(3R)-8-[4-[3-(2,4-dioxo-1,3-diazinan-1-yl)-5-fluoro-1-methylindazol-6-yl]piperidin-1-yl]-1-oxaspiro[4.5]decan-3-yl]-4-oxoquinazoline], the DC50 (A375.10 cells, 24 h) was 15.9 nM. For the same compound, under setting [1], the Emax was 26.9%.

`CCN(C)S(=O)(=O)Nc1ccc(F)c(Oc2ccc3ncn(-c4cnn(C5CCN(CC(=O)N6CCC(c7ccc(NC8CCC(=O)NC8=O)cc7)CC6)CC5)c4)c(=O)c3c2)c1C#N` (stereo not drawn) [Example 21, 6-[2-cyano-3-[[ethyl(methyl)sulfamoyl]amino]-6-fluorophenoxy]-3-[1-[1-[2-[4-[4-[(2,6-dioxopiperidin-3-yl)amino]phenyl]piperidin-1-yl]-2-oxoethyl]piperidin-4-yl]pyrazol-4-yl]-4-oxoquinazoline]: for the setting “A375.10 cells, 24 h”, the half-maximal degradation concentration (DC50) was found to be 34.3 nM. For the same compound, the Emax under setting [1] turned out to be 19.6%.

`CCN(C)S(=O)(=O)Nc1ccc(F)c(Oc2ccc3ncc([C@@H]4COC5(CCN(C(=O)CN6CCC(c7ccc(NC8CCC(=O)NC8=O)cc7F)CC6)CC5)C4)nc3c2)c1C#N` (stereo partly drawn) [Example 223, (3R)-3-[7-[2-cyano-3-[[ethyl(methyl)sulfamoyl]amino]-6-fluorophenoxy]quinoxalin-2-yl]-8-[2-[4-[4-[(2,6-dioxopiperidin-3-yl)amino]-2-fluorophenyl]piperidin-1-yl]acetyl]-1-oxa-8-azaspiro[4.5]decane] gave a DC50 (A375.10 cells, 24 h) of 29.6 nM. For the same compound, the Emax under setting [1] is 10.5%.

Take `N#Cc1c(NS(=O)(=O)C2CCCCC2)ccc(F)c1Oc1ccc2ncn(-c3cnc(N4CCN(C(=O)CN5CCC(c6ccc(N[C@H]7CCC(=O)NC7=O)cc6F)CC5)CC4)nc3)c(=O)c2c1` [Example 105, N-[2-cyano-3-[3-[2-[4-[2-[4-[4-[[(3S)-2,6-dioxopiperidin-3-yl]amino]-2-fluorophenyl]piperidin-1-yl]acetyl]piperazin-1-yl]pyrimidin-5-yl]-4-oxoquinazolin-6-yl]oxy-4-fluorophenyl]cyclohexanesulfonamide]: the maximal response (Emax) was determined as 11.8%. For the same compound, where the note is “A375.10 cells, 24 h”, the DC50 was determined as 17.7 nM.

As for `CCN(C)S(=O)(=O)Nc1ccc(F)c(Oc2ccc3ncn(-c4cnn(C5CCN(C(=O)CN6CCC(c7ccc8c(C9CCC(=O)NC9=O)nn(C)c8c7)CC6)CC5)c4)c(=O)c3c2)c1C#N` (stereo not drawn) [Example 146, 6-[2-cyano-3-[[ethyl(methyl)sulfamoyl]amino]-6-fluorophenoxy]-3-[1-[1-[2-[4-[3-(2,6-dioxopiperidin-3-yl)-1-methylindazol-6-yl]piperidin-1-yl]acetyl]piperidin-4-yl]pyrazol-4-yl]-4-oxoquinazoline], half-maximal degradation (A375.10 cells, 24 h) (DC50) was put at 22.2 nM. For the same compound, the maximal effect (Emax) under setting [1] was 16%.

With `CCN(C)S(=O)(=O)Nc1ccc(F)c(Oc2ccc3ncn([C@H]4COC5(CCN(C(=O)CC6(O)CCN(c7cc8c(cc7F)c(N7CCC(=O)NC7=O)nn8C)CC6)CC5)C4)c(=O)c3c2N)c1C#N` [Example 182, (3R)-3-[5-amino-6-[2-cyano-3-[[ethyl(methyl)sulfamoyl]amino]-6-fluorophenoxy]-4-oxoquinazolin-3-yl]-8-[2-[1-[3-(2,4-dioxo-1,3-diazinan-1-yl)-5-fluoro-1-methylindazol-6-yl]-4-hydroxypiperidin-4-yl]acetyl]-1-oxa-8-azaspiro[4.5]decane], the 50% degradation concentration (DC50) (A375.10 cells, 24 h) is 16.2 nM. The Emax under setting [1] was 19.8%.

Compound `CCN(C)S(=O)(=O)Nc1ccc(F)c(Oc2ccc3ncn(CCCC4CCN(CC(=O)N5CCC(c6ccc(NC7CCC(=O)NC7=O)cc6)CC5)CC4)c(=O)c3c2)c1C#N` (stereo not drawn) [Example 7, 6-[2-cyano-3-[[ethyl(methyl)sulfamoyl]amino]-6-fluorophenoxy]-3-[3-[1-[2-[4-[4-[(2,6-dioxopiperidin-3-yl)amino]phenyl]piperidin-1-yl]-2-oxoethyl]piperidin-4-yl]propyl]-4-oxoquinazoline] yielded a 50% degradation concentration (DC50) (A375.10 cells, 24 h) of 42.2 nM. The maximal effect (Emax) under setting [1] was 15.2%.

Consider `CCN(C)S(=O)(=O)Nc1ccc(F)c(Oc2ccc3ncn([C@@H]4CCC5(CCN(C(=O)CN6CCC(c7ccc(NC8CCC(=O)NC8=O)cc7F)CC6)CC5)C4)c(=O)c3c2Cl)c1C#N` (single isomer, unassigned) [Example 80], for which it took 30.5 nM to reach half-maximal degradation (A375.10 cells, 24 h) (DC50). For the same compound, the maximal response (Emax) under setting [1] stood at 13.8%.

Regarding `O=C1CC[C@H](Nc2ccc(C3CCN(CC(=O)N4CCN(c5ncc(-n6cnc7ccc(Oc8c(F)ccc(NS(=O)(=O)C9CCCC9)c8F)cc7c6=O)cn5)CC4)CC3)c(F)c2)C(=O)N1` [Example 138, N-[3-[3-[2-[4-[2-[4-[4-[[(3S)-2,6-dioxopiperidin-3-yl]amino]-2-fluorophenyl]piperidin-1-yl]acetyl]piperazin-1-yl]pyrimidin-5-yl]-4-oxoquinazolin-6-yl]oxy-2,4-difluorophenyl]cyclopentanesulfonamide], the 50% degradation concentration (DC50) (A375.10 cells, 24 h) amounted to 17.2 nM. Also, under setting [1], the maximum response (Emax) stood at 10.7%.

The compound `CCN(C)S(=O)(=O)Nc1ccc(F)c(Nc2ccc3ncn([C@H]4COC5(CCN(C(=O)CC6(O)CCN(c7cc8c(cc7F)c(N7CCC(=O)NC7=O)nn8C)CC6)CC5)C4)c(=O)c3c2F)c1C#N` (single isomer, unassigned) [Example 184] came in with a half-maximal degradation concentration (DC50) (A375.10 cells, 24 h) of 8.55 nM. The Emax under setting [1] stood at 18%.

The compound `N#Cc1c(NS(=O)(=O)C2CCCC2)ccc(F)c1Oc1ccc2ncn(-c3cnc(N4CCN(C(=O)CN5CCC(c6ccc(N[C@@H]7CCC(=O)NC7=O)cc6F)CC5)CC4)nc3)c(=O)c2c1` [Example 108, N-[2-cyano-3-[3-[2-[4-[2-[4-[4-[[(3R)-2,6-dioxopiperidin-3-yl]amino]-2-fluorophenyl]piperidin-1-yl]acetyl]piperazin-1-yl]pyrimidin-5-yl]-4-oxoquinazolin-6-yl]oxy-4-fluorophenyl]cyclopentanesulfonamide] returned a half-maximal degradation concentration (DC50) (A375.10 cells, 24 h) of 17.8 nM. Under setting [1], the Emax is 10.9%.

As to `N#Cc1c(NS(=O)(=O)N2CCC2)ccc(F)c1Oc1ccc2ncn(-c3cnc(N4CCN(C(=O)CN5CCC(c6ccc(N[C@@H]7CCC(=O)NC7=O)cc6F)CC5)CC4)nc3)c(=O)c2c1` [Example 125, N-[2-cyano-3-[3-[2-[4-[2-[4-[4-[[(3R)-2,6-dioxopiperidin-3-yl]amino]-2-fluorophenyl]piperidin-1-yl]acetyl]piperazin-1-yl]pyrimidin-5-yl]-4-oxoquinazolin-6-yl]oxy-4-fluorophenyl]azetidine-1-sulfonamide], for the setting “A375.10 cells, 24 h”, the 50% degradation concentration (DC50) is 15.7 nM. Further, under setting [1], the maximum response (Emax) came out at 12.6%.

`CCN(C)S(=O)(=O)Nc1ccc(F)c(Oc2ccc3ncn(C4CCC5(CC4)CCN(C(=O)CN4CCC(c6ccc7c(N8CCC(=O)NC8=O)nn(C)c7c6)CC4)CC5)c(=O)c3c2)c1C#N` [Example 155, 9-[6-[2-cyano-3-[[ethyl(methyl)sulfamoyl]amino]-6-fluorophenoxy]-4-oxoquinazolin-3-yl]-3-[2-[4-[3-(2,4-dioxo-1,3-diazinan-1-yl)-1-methylindazol-6-yl]piperidin-1-yl]acetyl]-3-azaspiro[5.5]undecane] had a DC50 (A375.10 cells, 24 h) of 23.2 nM. Moreover, the maximum response (Emax) under setting [1] turned out to be 9.75%.

Where the note is “A375.10 cells, 24 h”, `CCN(C)S(=O)(=O)Nc1ccc(F)c(Oc2ccc3ncn(CC4CC5(CCN(C(=O)CN6CCC(c7ccc(NC8CCC(=O)NC8=O)cc7F)CC6)CC5)C4)c(=O)c3c2)c1C#N` (stereo not drawn) [Example 31, 6-[2-cyano-3-[[ethyl(methyl)sulfamoyl]amino]-6-fluorophenoxy]-3-[[7-[2-[4-[4-[(2,6-dioxopiperidin-3-yl)amino]-2-fluorophenyl]piperidin-1-yl]acetyl]-7-azaspiro[3.5]nonan-2-yl]methyl]-4-oxoquinazoline] had a half-maximal degradation concentration (DC50) of 46.9 nM. For the same compound, the Emax under setting [1] is 11.6%.

Take `CCN(C)S(=O)(=O)Nc1ccc(F)c(Oc2ccc3ncn(-c4cnc(N5CCN(C(=O)CN6CCC(c7c(F)cc(NC8CCC(=O)NC8=O)cc7OC)CC6)CC5)nc4)c(=O)c3c2)c1C#N` (stereo not drawn) [Example 89, 6-[2-cyano-3-[[ethyl(methyl)sulfamoyl]amino]-6-fluorophenoxy]-3-[2-[4-[2-[4-[4-[(2,6-dioxopiperidin-3-yl)amino]-2-fluoro-6-methoxyphenyl]piperidin-1-yl]acetyl]piperazin-1-yl]pyrimidin-5-yl]-4-oxoquinazoline]: under “A375.10 cells, 24 h”, the DC50 is 33 nM. Also, under setting [1], the Emax was found to be 11.5%.

For `CCN(C)S(=O)(=O)Nc1ccc(F)c(Oc2ccc3ncn([C@H]4CCC5(CCN(C(=O)CN6CCC(c7ccc8c(C9CCC(=O)NC9=O)nn(C)c8c7)C(F)(F)C6)CC5)C4)c(=O)c3c2)c1C#N` (stereo partly drawn) [Example 160, 6-[2-cyano-3-[[ethyl(methyl)sulfamoyl]amino]-6-fluorophenoxy]-3-[(3S)-8-[2-[4-[3-(2,6-dioxopiperidin-3-yl)-1-methylindazol-6-yl]-3,3-difluoropiperidin-1-yl]acetyl]-8-azaspiro[4.5]decan-3-yl]-4-oxoquinazoline], the DC50 (A375.10 cells, 24 h) was found to be 22.2 nM. Further, the Emax under setting [1] turned out to be 23.9%.
